Source: ChEMBL document CHEMBL5634143, “Development of teixobactin analogues containing hydrophobic, non-proteogenic amino acids that are highly potent against multidrug-resistant bacteria and biofilms” (Eur J Med Chem, 2023)
Converted amounts (≈) assume the structure as drawn. The source made the active and inactive calls. The rule behind the calls is not given here.

How the values were obtained:
Enterococcus faecium [1] = test: Antibacterial activity against Vancomycin-resistant Enterococcus faecium 1014 assessed as inhibition of bacterial growth; format: functional
[2] = tested on: Staphylococcus saprophyticus; test: Antibacterial activity against Staphylococcus saprophyticus ATCC 49907 assessed as inhibition of bacterial growth; format: functional
Enterococcus faecium [3] = test: Antibacterial activity against Vancomycin-resistant Enterococcus […] ATCC 700802 assessed as inhibition of bacterial growth; format: functional
[4] = tested on: Staphylococcus saprophyticus; test: Antibacterial activity against Staphylococcus saprophyticus ATCC 15305 assessed as inhibition of bacterial growth; format: functional
[5] = tested on: Staphylococcus saprophyticus; test: Antibacterial activity against Staphylococcus saprophyticus ATCC BAA 750 assessed as inhibition of bacterial growth; format: functional
Bacillus cereus = test: Antibacterial activity against Bacillus cereus ATCC 11788 assessed as inhibition of bacterial growth; format: functional
[6] = tested on: Staphylococcus epidermidis; test: Antibacterial activity against Staphylococcus epidermidis 1457 assessed as inhibition of biofilm formation at 10 ug/ml incubated for 5 hrs by confocal microscopic analysis; format: functional, organism-based; settings: dose 10.0 µg/ml
Bacillus subtilis = test: Antibacterial activity against Bacillus subtilis ATCC 6633 assessed as inhibition of bacterial growth; format: functional
Staphylococcus aureus [7] = test: Antibacterial activity against Staphylococcus aureus 15981 assessed as inhibition of biofilm formation at 10 ug/ml incubated for 5 hrs by confocal microscopic analysis; format: functional, organism-based; settings: dose 10.0 µg/ml
[8] = Hemolytic activity in rabbit erythrocytes assessed as hemolysis at 512 microg/ml relative to control; format: toxicity, cell-based, Oryctolagus cuniculus, Erythrocyte; settings: at 512 µg/mL, read-out: Activity
Staphylococcus aureus [9] = test: Antibacterial activity against methicilin-resistant Staphylococcus aureus 21455 assessed as inhibition of bacterial growth; format: functional
Staphylococcus aureus [10] = test: Antibacterial activity against methicilin-resistant Staphylococcus aureus 42412 assessed as inhibition of bacterial growth; format: functional
[11] = tested on: Staphylococcus epidermidis; test: Antibacterial activity against Staphylococcus epidermidis 12228 assessed as inhibition of bacterial growth; format: functional
Staphylococcus aureus [12] = test: Antibacterial activity against Staphylococcus aureus 4299 assessed as inhibition of bacterial growth; format: functional
Staphylococcus aureus [13] = test: Antibacterial activity against methicilin-resistant Staphylococcus aureus 1003 assessed as inhibition of bacterial growth; format: functional
Staphylococcus aureus [14] = test: Antibacterial activity against methicilin-resistant Staphylococcus aureus ATCC 700699 assessed as inhibition of bacterial growth; format: functional
Staphylococcus aureus [15] = test: Bactericidal activity against methicilin-resistant Staphylococcus aureus 21455 assessed as inhibition of bacterial growth by time-kill kinetic assay; format: functional, organism-based
Enterococcus faecium [16] = test: Antibacterial activity against Vancomycin-resistant Enterococcus […] ATCC 29212 assessed as inhibition of bacterial growth; format: functional; settings: Enterococcus faecalis
[17] = tested on: Staphylococcus saprophyticus; test: Antibacterial activity against Staphylococcus saprophyticus ATCC 49453 assessed as inhibition of bacterial growth; format: functional
Staphylococcus aureus [18] = test: Bactericidal activity against methicilin-resistant Staphylococcus aureus 21455 assessed as reduction in bacterial growth by measuring minimum bactericidal concentration at 4 times MIC by time-kill kinetic assay; format: functional
Staphylococcus aureus [19] = test: Antibacterial activity against Staphylococcus aureus 29213 assessed as inhibition of bacterial growth; format: functional
Cell membrane [20] = test: Induction of cell membrane […] in methicilin-resistant Staphylococcus aureus 21455 assessed as increase in fluorescence intensity at 16 times MIC by SYTOX green dye based fluorescence analysis; format: cell membranes
Pseudomonas aeruginosa [21] = test: Antibacterial activity against Pseudomonas aeruginosa DSMZ 1117 assessed as inhibition of bacterial growth; format: functional
Staphylococcus aureus [22] = test: Bactericidal activity against methicilin-resistant Staphylococcus aureus 21455 assessed as reduction in bacterial colony forming unit at 16 times MIC observed after 24 hrs by time-kill kinetic assay; format: functional, organism-based
Cell membrane [23] = test: Induction of cell membrane […] in methicilin-resistant Staphylococcus aureus 21455 assessed as increase in fluorescence intensity at 8 times MIC by SYTOX green dye based fluorescence analysis; format: cell membranes
Pseudomonas aeruginosa [24] = test: Antibacterial activity against Pseudomonas aeruginosa ATCC 9027 assessed as inhibition of bacterial growth; format: functional
Staphylococcus aureus [25] = test: Bactericidal activity against methicilin-resistant Staphylococcus aureus 21455 assessed as reduction in bacterial colony forming unit at 16 times MIC observed after 8 hrs by time-kill kinetic assay; format: functional, organism-based
Cell membrane [26] = test: Induction of cytoplasmic membrane depolarization in methicilin-resistant Staphylococcus aureus 21455 at 8 times MIC by DiSC3(5) dye-based fluorescence assay
Cell membrane [27] = test: Induction of cytoplasmic membrane depolarization in methicilin-resistant Staphylococcus aureus 21455 at 16 times MIC by DiSC3(5) dye-based fluorescence assay
Staphylococcus aureus [28] = test: Bactericidal activity against methicilin-resistant Staphylococcus aureus 21455 assessed as inhibition of bacterial growth at >=8 times MIC by time-kill kinetic assay; format: functional, organism-based
Staphylococcus aureus [29] = test: Bactericidal activity against methicilin-resistant Staphylococcus aureus 21455 assessed as reduction in bacterial growth by measuring minimum bactericidal concentration at 16 times MIC by time-kill kinetic assay; format: functional

| Structure (SMILES) | MIC (Enterococcus faecium [1]) | MIC [2] | MIC (Enterococcus faecium [3]) | MIC [4] | MIC [5] | MIC (Bacillus cereus) | Activity [6] | MIC (Bacillus subtilis) | Activity (Staphylococcus aureus [7]) | hemolysis at 512 microg/ml [8] | MIC (Staphylococcus aureus [9]) | MIC (Staphylococcus aureus [10]) | MIC [11] | MIC (Staphylococcus aureus [12]) | MIC (Staphylococcus aureus [13]) | MIC (Staphylococcus aureus [14]) | Activity (Staphylococcus aureus [15]) | MIC (Enterococcus faecium [16]) | MIC [17] | MIC (Staphylococcus aureus [19]) | other results |
| --- | --- | --- | --- | --- | --- | --- | --- | --- | --- | --- | --- | --- | --- | --- | --- | --- | --- | --- | --- | --- | --- |
| CCCC[C@@H]1NC(=O)[C@H](C)NC(=O)[C@H](NC(=O)[C@H](CO)NC(=O)[C@@H](NC(=O)[C@H](NC(=O)[C@@H](CCC(N)=O)NC(=O)[C@H](CO)NC(=O)[C@@H](NC(=O)[C@@H](Cc2ccccc2)NC)[C@@H](C)CC)[C@@H](C)CC)[C@@H](C)CC)[C@H](C)OC(=O)[C@H]([C@@H](C)CC)NC1=O | 1 µg/mL (≈ 0.832 µM) | 0.063 µg/mL (≈ 0.0524 µM) | 0.5 µg/mL (≈ 0.416 µM) | 0.063 µg/mL (≈ 0.0524 µM) | 0.063 µg/mL (≈ 0.0524 µM) | 0.063 µg/mL (≈ 0.0524 µM) | Active | 0.063 µg/mL (≈ 0.0524 µM) | Active | ≤ 2% | 0.25 µg/mL (≈ 0.208 µM) | 0.125 µg/mL (≈ 0.104 µM) | 0.063 µg/mL (≈ 0.0524 µM) | 0.25 µg/mL (≈ 0.208 µM) | 0.5 µg/mL (≈ 0.416 µM) | 0.5 µg/mL (≈ 0.416 µM) | Dose-Dependent Effect | 1 µg/mL (≈ 0.832 µM) | 0.063 µg/mL (≈ 0.0524 µM) | 0.063 µg/mL (≈ 0.0524 µM) | MBC (Staphylococcus aureus [18]): 1 µg/mL (≈ 0.832 µM) |
| CC[C@H](C)[C@H](NC(=O)[C@@H](Cc1ccccc1)NC)C(=O)N[C@@H](CO)C(=O)N[C@H](CCCNC(=N)N)C(=O)N[C@@H](C(=O)N[C@H](C(=O)N[C@@H](CO)C(=O)N[C@H]1C(=O)N[C@@H](C)C(=O)N[C@@H](C2CCCCC2)C(=O)N[C@@H]([C@@H](C)CC)C(=O)O[C@H]1C)[C@@H](C)CC)[C@@H](C)CC | 0.063 µg/mL (≈ 0.0502 µM) | 0.063 µg/mL (≈ 0.0502 µM) | 0.063 µg/mL (≈ 0.0502 µM) | < 0.063 µg/mL | 0.063 µg/mL (≈ 0.0502 µM) | 0.063 µg/mL (≈ 0.0502 µM) | Active | 0.063 µg/mL (≈ 0.0502 µM) | Active | ≤ 2% | 0.25 µg/mL (≈ 0.199 µM) | 0.063 µg/mL (≈ 0.0502 µM) | 0.063 µg/mL (≈ 0.0502 µM) | 0.063 µg/mL (≈ 0.0502 µM) | 0.063 µg/mL (≈ 0.0502 µM) | 0.063 µg/mL (≈ 0.0502 µM) | Dose-Dependent Effect | 0.063 µg/mL (≈ 0.0502 µM) | < 0.063 µg/mL | 0.063 µg/mL (≈ 0.0502 µM) | Activity (Cell membrane [20]): Active; MIC (Pseudomonas aeruginosa [21]): > 32 µg/mL; Activity (Staphylococcus aureus [22]): Active; Activity (Cell membrane [23]): Active; MIC (Pseudomonas aeruginosa [24]): > 32 µg/mL; Activity (Staphylococcus aureus [25]): Active; Activity (Cell membrane [26]): inactive; Activity (Cell membrane [27]): inactive |
| CC[C@H](C)[C@H](NC(=O)[C@@H](Cc1ccccc1)NC)C(=O)N[C@@H](CO)C(=O)N[C@H](CCC(N)=O)C(=O)N[C@@H](C(=O)N[C@H](C(=O)N[C@@H](CO)C(=O)N[C@H]1C(=O)N[C@@H](C)C(=O)N[C@@H](C2CCCCC2)C(=O)N[C@@H]([C@@H](C)CC)C(=O)O[C@H]1C)[C@@H](C)CC)[C@@H](C)CC | 0.25 µg/mL (≈ 0.204 µM) | 0.063 µg/mL (≈ 0.0513 µM) | 0.063 µg/mL (≈ 0.0513 µM) | < 0.063 µg/mL | 0.063 µg/mL (≈ 0.0513 µM) | 0.063 µg/mL (≈ 0.0513 µM) | – | 0.063 µg/mL (≈ 0.0513 µM) | – | ≤ 2% | 0.125 µg/mL (≈ 0.102 µM) | 0.063 µg/mL (≈ 0.0513 µM) | 0.063 µg/mL (≈ 0.0513 µM) | 0.063 µg/mL (≈ 0.0513 µM) | 0.063 µg/mL (≈ 0.0513 µM) | 0.125 µg/mL (≈ 0.102 µM) | – | 0.125 µg/mL (≈ 0.102 µM) | < 0.063 µg/mL | 0.063 µg/mL (≈ 0.0513 µM) | Activity (Cell membrane [20]): 10.6%; Activity (Staphylococcus aureus [22]): Active; Activity (Cell membrane [23]): 8.8%; Activity (Staphylococcus aureus [25]): Active; Activity (Staphylococcus aureus [28]): Active; Activity (Cell membrane [26]): inactive; Activity (Cell membrane [27]): inactive; MBC (Staphylococcus aureus [29]): 2 µg/mL (≈ 1.63 µM) |
